Source: publication PMC11908448 (Bioorganic chemistry, 2019)
Like-named read-outs stand apart in the source and are kept apart here.

What was measured:
Bovine XO [1] = target: T1, Bovine XO (Bos taurus, UniProt P80457); experiment: Determination of inhibitory potency against XO activity; assay type: biochemical
Bovine XO [2] = target: T1, Bovine XO; details: cited from earlier work

T1 sequence (P80457 whole entry): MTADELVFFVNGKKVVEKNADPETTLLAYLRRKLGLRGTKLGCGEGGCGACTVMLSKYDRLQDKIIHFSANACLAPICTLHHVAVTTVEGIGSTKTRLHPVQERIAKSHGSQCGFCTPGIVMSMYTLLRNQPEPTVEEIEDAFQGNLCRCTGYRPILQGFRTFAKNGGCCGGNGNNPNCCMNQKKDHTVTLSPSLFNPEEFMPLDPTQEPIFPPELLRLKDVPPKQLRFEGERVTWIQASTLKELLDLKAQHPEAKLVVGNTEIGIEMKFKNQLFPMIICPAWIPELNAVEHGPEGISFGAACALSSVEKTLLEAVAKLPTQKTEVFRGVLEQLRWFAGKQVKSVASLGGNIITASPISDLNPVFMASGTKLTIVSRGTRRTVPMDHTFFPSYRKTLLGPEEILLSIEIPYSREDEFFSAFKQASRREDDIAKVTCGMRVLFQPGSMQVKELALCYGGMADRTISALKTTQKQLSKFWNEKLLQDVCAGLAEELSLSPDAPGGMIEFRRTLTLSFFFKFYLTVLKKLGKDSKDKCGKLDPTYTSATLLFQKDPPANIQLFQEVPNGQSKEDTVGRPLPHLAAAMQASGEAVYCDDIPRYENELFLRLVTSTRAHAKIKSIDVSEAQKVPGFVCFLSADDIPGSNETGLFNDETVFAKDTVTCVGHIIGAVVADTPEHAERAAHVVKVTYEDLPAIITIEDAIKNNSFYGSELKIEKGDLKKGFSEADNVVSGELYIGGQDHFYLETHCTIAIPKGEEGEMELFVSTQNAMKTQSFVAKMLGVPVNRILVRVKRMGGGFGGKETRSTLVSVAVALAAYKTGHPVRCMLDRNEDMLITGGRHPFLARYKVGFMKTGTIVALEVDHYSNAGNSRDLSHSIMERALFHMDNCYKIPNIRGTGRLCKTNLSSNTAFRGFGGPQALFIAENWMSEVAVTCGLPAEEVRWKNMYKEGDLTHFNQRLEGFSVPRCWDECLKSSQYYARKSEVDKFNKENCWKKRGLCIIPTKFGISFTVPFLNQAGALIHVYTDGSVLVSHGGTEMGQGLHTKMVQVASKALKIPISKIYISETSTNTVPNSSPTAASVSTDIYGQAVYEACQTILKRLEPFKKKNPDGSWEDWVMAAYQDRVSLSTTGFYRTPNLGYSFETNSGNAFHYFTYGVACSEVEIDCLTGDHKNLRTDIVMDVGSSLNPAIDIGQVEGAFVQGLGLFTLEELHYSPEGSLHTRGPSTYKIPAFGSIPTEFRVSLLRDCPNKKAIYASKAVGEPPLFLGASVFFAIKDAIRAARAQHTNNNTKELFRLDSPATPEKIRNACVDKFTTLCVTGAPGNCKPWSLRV

Row | SMILES | IC50 (Bovine XO [1]) | XO inhibitory potency (in words) (Bovine XO [1]; reported by others [41] or measured by the authors) | mode of XO inhibition (Bovine XO [2]; kinetic studies) | XO inhibitory potency (in words) (Bovine XO [2]; literature statement)
1 | O=C(/C=C/c1ccc(O)c(O)c1)Oc1ccccc1 [Compound 8, (E)-phenyl 3-(3,4-dihydroxyphenyl)acrylate] | ~250 nM | – | – | –
2 | Cc1nc(-c2ccc(OCC(C)C)c(C#N)c2)sc1C(=O)O [febuxostat, Febuxostat, reference compound] | – | low nanomolar or subnanomolar range | – | –
3 | O=C(/C=C/c1ccc(O)c(O)c1)OCCc1ccccc1 [Compound 1, (E)-phenethyl 3-(3,4-dihydroxyphenyl)acrylate] | 3900 nM | – | competitive inhibitor | low micromolar range
